Results taken from article PMC6694155, “PTPσ inhibitors promote hematopoietic stem cell regeneration” (Nature Communications, 2019).
“And” between values parts separate entries of the source, which are not always exact repeats. Equal entries are not always repeated.

Experiments:
[1] = molecular target: T1, TCPTP (T-Cell Protein-Tyrosine Phosphatase) (Homo sapiens, UniProt P17706); assay: PhosphataseProfiler screen: TCPTP; type: biochemical; conditions: replicates
T1 construct: purchased Eurofins Pharma Discovery Services UK
Experimental: Compound DJ001 was evaluated in a PhosphataseProfiler™ screen at 10 μM and 1 μM (2.7 μg/mL and 0.27 μg/mL) concentrations at Eurofins Pharma Discovery Services UK (Study number UK022-0004033) against a panel of 21 Phosphatases. In each experiment, the respective reference antagonist/agonist was tested directly with DJ001 and the data were compared with historical values determined at Eurofins. DJ001 compound inhibition was calculated as percentage inhibition of the enzymatic activity compared with control.

[2] = tested on: DsRed+ BM sca-1+lin− cells in irradiated C57BL/6 mice; assay: Homing study; type: in vivo, mouse
Experimental: Sorted BM sca-1^+lin^− cells (100,000) from DsRed^+ mice were transplanted into lethally irradiated (950 cGy) recipient C57BL/6 mice followed by subcutaneous treatment of 5 mg/kg DJ001 or vehicle × 1 dose. At 18 h post transplantation, BM cells were collected from the recipient mice and were analyzed for percentages of DsRed^+ cells in the BM[17].

BM KSL cells = assay: CFC assay, 3 day culture of non-irradiated BM KSL cells; type: cell-based, mouse; conditions: for Supplementary Figure 3b: BFU-E / Supplementary Figure 3b: CFU-GEMM / Supplementary Figure 3b: CFU-GM: non-irradiated BM KSL cells, replicates
Experimental: CFC assays (colony-forming unit-granulocyte monocyte), burst-forming unit-erythroid, and CFU-GEMM were performed using MethoCult GF M3434 (Stemcell Technologies)[6]. For all in vitro assays, BM CD34^−KSL cells, KSL cells, and Lin^− cells were cultured in TSF media (IMDM, 10% FBS, 1% pen-strep, 20 ng/mL recombinant mouse TPO, 125 ng/mL recombinant mouse SCF, 50 ng/mL recombinant mouse Flt3 ligand). Recombinant mouse SCF, Flt3 ligand, and TPO were purchased from R&D Systems. For competitive repopulation assays, BM cells were isolated from donor 10–12-week-old female CD45.2^+ mice. Recipient 10-week-old female CD45.1^+ B6.SJL mice were irradiated with 950 cGy TBI using a Cs137 irradiator and donor BM cells were administered via tail vein injection along with a competing dose of 1 × 10^5 non-irradiated host BM cells. Multilineage donor hematopoietic cell engraftment was measured in the PB by flow cytometry.

PTPσ = molecular target: T2, PTPσ (Mus musculus, UniProt B0V2N1); assay: Substrate titration of PTPσ (Km, Vmax, mechanism of inhibition); type: biochemical
T2 sequence (B0V2N1 1326-1907): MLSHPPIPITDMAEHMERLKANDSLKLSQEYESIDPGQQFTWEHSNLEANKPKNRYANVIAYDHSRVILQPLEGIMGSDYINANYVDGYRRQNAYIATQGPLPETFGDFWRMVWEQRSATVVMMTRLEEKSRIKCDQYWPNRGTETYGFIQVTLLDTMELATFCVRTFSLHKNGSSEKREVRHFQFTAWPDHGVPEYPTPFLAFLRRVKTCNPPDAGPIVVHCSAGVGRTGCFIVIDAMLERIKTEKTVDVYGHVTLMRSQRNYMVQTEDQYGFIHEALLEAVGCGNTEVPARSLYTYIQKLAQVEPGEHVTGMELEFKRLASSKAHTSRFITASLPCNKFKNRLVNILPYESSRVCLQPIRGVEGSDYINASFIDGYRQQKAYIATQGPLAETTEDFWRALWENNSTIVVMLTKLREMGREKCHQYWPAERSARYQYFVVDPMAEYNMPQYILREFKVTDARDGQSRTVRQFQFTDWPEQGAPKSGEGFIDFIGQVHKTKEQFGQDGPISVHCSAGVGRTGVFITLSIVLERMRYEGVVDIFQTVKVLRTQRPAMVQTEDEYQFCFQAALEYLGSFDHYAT
Experimental: The two intracellular catalytic domains (D1 and D2) of Ptprs were cloned into a pET28a vector, overexpressed in Escherichia coli BL21 and purified. Enzymatic activity of PTPσ was assayed using a modified version of the Malachite Green Assay[66] and the Tyrosine Phosphatase Assay Kit (Promega Corporation). Unless stated otherwise, standard assays were carried out using 50 nM PTPσ protein in 1× Buffer (10 mM Tris, 5 mM MgCl2, 10 mM NaCl, 0.02% Tween) and Tyr Phosphopeptide as substrate (200 μM for Fig. 1b, c, 50–1200 μM in Fig. 1c). Purified catalytic domain 1 and domain 2 of PTPσ were pre-incubated with test compounds 3071, 5205, 5075, or control for 15 min in a 96-well plate before the addition of Tyr Phosphopeptide (DADE(pY)LIPQQG). For IC50 determination, rates normalized relative to uninhibited controls (dimethyl sulfoxide (DMSO)) were plotted against compound concentration and fitted using a four-parameter nonlinear regression curve fit ((y = [(A − D) (1 + {xC − 1}B) − 1] + D) (Prism 6.0, Graphpad Software). For mechanism studies and determination of the enyzme’s Km and Vmax, data were analyzed using a nonlinear regression fit according to the classical Michaelis–Menten kinetics model, Y = Vmax*X/(Km + X) (Prism 6.0, Graphpad Software).

T1 sequence (P17706 whole entry, species assumed): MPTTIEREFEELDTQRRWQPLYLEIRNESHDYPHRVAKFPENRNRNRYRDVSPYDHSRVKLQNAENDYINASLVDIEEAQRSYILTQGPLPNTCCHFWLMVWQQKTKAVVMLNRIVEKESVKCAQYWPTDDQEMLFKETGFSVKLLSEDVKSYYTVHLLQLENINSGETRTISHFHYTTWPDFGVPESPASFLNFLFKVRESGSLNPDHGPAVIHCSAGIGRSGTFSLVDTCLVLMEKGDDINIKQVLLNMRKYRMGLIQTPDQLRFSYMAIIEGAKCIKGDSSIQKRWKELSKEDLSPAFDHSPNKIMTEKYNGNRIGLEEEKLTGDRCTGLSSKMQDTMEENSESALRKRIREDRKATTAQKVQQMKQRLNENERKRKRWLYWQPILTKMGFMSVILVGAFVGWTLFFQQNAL

SMILES: O=C(/C=C\Nc1cccc([N+](=O)[O-])c1)c1ccccc1 [DJ001, (Z)-3-((3-nitrophenyl)amino)-1-phenylprop-2-en-1-one]
- Supplementary Figure 1: TCPTP activity ([1]; 2.7 μg/mL DJ001): 91 and 103 and 88
- Supplementary Figure 1: TCPTP activity ([1]; 0.27 g/mL DJ001): 97 and 96 and 99
- homing of transplanted BM sca-1+lin− cells ([2]; 18 h, irradiated C57BL/6 mice): no effect on homing
- percentage of donor DsRed+ cells in the BM, per mouse (Supplementary Figure 8b) ([2]; 18 hours, 5 mg/kg DJ001 subcutaneously, 5 mg/kg): 0.19% and 0.183% and 0.207%
- Supplementary Figure 3b: BFU-E (BM KSL cells; 10 ng/mL): 0 (4×) and 1 and 2
- Supplementary Figure 3b: CFU-GEMM (BM KSL cells; 10 ng/mL): 2 and 4 (2×) and 7 (2×) and 3
- Supplementary Figure 3b: CFU-GM (BM KSL cells; 10 ng/mL): 21 and 22 and 19 and 15 (2×) and 18
- Supplementary Figure 3b: BFU-E (BM KSL cells; 100 ng/mL): 1 (3×) and 3 and 2
- Supplementary Figure 3b: CFU-GEMM (BM KSL cells; 100 ng/mL): 8 (2×) and 7 and 6 and 5
- Supplementary Figure 3b: CFU-GM (BM KSL cells; 100 ng/mL): 23 and 20 and 24 (2×) and 21
- Supplementary Figure 3b: BFU-E (BM KSL cells; 1000 ng/mL): 3 and 2 (3×) and 1
- Supplementary Figure 3b: CFU-GEMM (BM KSL cells; 1000 ng/mL): 6 (3×) and 8 and 9
- Supplementary Figure 3b: CFU-GM (BM KSL cells; 1000 ng/mL): 27 and 30 and 28 (2×) and 25
- Supplementary Figure 3b: BFU-E (BM KSL cells; 5 µg/mL): 2 and 4 and 1 (3×) and 0
- Supplementary Figure 3b: BFU-E (BM KSL cells; 10 µg/mL): 3 (2×) and 2 (2×) and 1 (2×)
- Supplementary Figure 3b: CFU-GEMM (BM KSL cells; 10 µg/mL): 3 (3×) and 2 (2×) and 1
- Supplementary Figure 3b: CFU-GM (BM KSL cells; 10 µg/mL): 14 (2×) and 17 and 16 and 15 and 12
- number of BM CFCs in 3 day culture of BM KSL cells (BM KSL cells; 10 – 100 ng/ml DJ001): significantly increased the number of BM CFCs
- numbers of CFCs vs control (BM KSL cells; 3 day culture of non-irradiated BM KSL cells): significantly increased the numbers of colony forming cells (CFCs)
- Supplementary Figure 3b: CFU-GEMM (BM KSL cells): 3 (4×) and 6 and 4
- Supplementary Figure 3b: CFU-GM (BM KSL cells): 22 and 21 and 23 and 20 and 19 and 18
- substrate titration source data, rate per replicate (PTPσ; 25M DJ001, Substrate 50 uM): 9
- substrate titration source data, rate per replicate (PTPσ; 25M DJ001, Substrate 50 uM, 25 µM DJ001): 12.3
- substrate titration source data, rate per replicate (PTPσ; 25M DJ001, Substrate 100 uM): 13.4
- substrate titration source data, rate per replicate (PTPσ; 25M DJ001, Substrate 100 uM, 25 µM DJ001): 16.2
- substrate titration source data, rate per replicate (PTPσ; 25M DJ001, Substrate 200 uM): 26.7
- substrate titration source data, rate per replicate (PTPσ; 25M DJ001, Substrate 200 uM, 25 µM DJ001): 26
- substrate titration source data, rate per replicate (PTPσ; 25M DJ001, Substrate 400 uM): 42.9
- substrate titration source data, rate per replicate (PTPσ; 25M DJ001, Substrate 400 uM, 25 µM DJ001): 40.9
- substrate titration source data, rate per replicate (PTPσ; 25M DJ001, Substrate 800 uM): 54.8
- substrate titration source data, rate per replicate (PTPσ; 25M DJ001, Substrate 800 uM, 25 µM DJ001): 50.4
- substrate titration source data, rate per replicate (PTPσ; 25M DJ001, Substrate 1200 uM): 57.8
- substrate titration source data, rate per replicate (PTPσ; 25M DJ001, Substrate 1200 uM, 25 µM DJ001): 55.4
- substrate titration source data, rate per replicate (PTPσ; 50M DJ001, Substrate 50 uM, 50 µM DJ001): 7.7 and 8
- substrate titration source data, rate per replicate (PTPσ; 50M DJ001, Substrate 100 uM, 50 µM DJ001): 9.1 and 9.9
- substrate titration source data, rate per replicate (PTPσ; 50M DJ001, Substrate 200 uM, 50 µM DJ001): 14.1 and 15.3
- substrate titration source data, rate per replicate (PTPσ; 50M DJ001, Substrate 400 uM, 50 µM DJ001): 23.2 and 23.4
- substrate titration source data, rate per replicate (PTPσ; 50M DJ001, Substrate 800 uM, 50 µM DJ001): 28.7 and 27
- substrate titration source data, rate per replicate (PTPσ; 50M DJ001, Substrate 1200 uM, 50 µM DJ001): 34.7 and 35
- substrate titration source data, rate per replicate (PTPσ; 100M DJ001, Substrate 50 uM): 7.7 and 7.4
- substrate titration source data, rate per replicate (PTPσ; 100M DJ001, Substrate 100 uM): 7.7
- substrate titration source data, rate per replicate (PTPσ; 100M DJ001, Substrate 200 uM): 8.9
- substrate titration source data, rate per replicate (PTPσ; 100M DJ001, Substrate 400 uM): 13.4 and 13.9
- substrate titration source data, rate per replicate (PTPσ; 100M DJ001, Substrate 800 uM): 17.3 and 16.7
- substrate titration source data, rate per replicate (PTPσ; 100M DJ001, Substrate 1200 uM): 25.5 and 23.8
- mechanism of PTPσ inhibition (PTPσ; substrate titration, inhibits Vmax, constant Km): non-competitive inhibitor
